Reference: US9586914B2, “Modulators of C3a receptors” (THE UNIVERSITY OF QUEENSLAND, priority 2011, dated 2017)

Assays:
C3a receptor (C3aR) = biological target: T1, C3a receptor (C3aR) (Homo sapiens, UniProt Q16581); assay: Competitive binding with [^125I]-C3a in HMDM; conditions: Table 6, competitive binding with [^125I]-C3a, HMDM
T1 construct: peripheral blood mononuclear cells were isolated from buffy coat (obtained from Australian Red Cross Blood Service, Kelvin Grove); endogenous in cells; host or cells: primary human monocyte-derived macrophages (HMDM) differentiated from CD14+ monocytes of donor buffy coat
T1 sequence (Q16581 1-482): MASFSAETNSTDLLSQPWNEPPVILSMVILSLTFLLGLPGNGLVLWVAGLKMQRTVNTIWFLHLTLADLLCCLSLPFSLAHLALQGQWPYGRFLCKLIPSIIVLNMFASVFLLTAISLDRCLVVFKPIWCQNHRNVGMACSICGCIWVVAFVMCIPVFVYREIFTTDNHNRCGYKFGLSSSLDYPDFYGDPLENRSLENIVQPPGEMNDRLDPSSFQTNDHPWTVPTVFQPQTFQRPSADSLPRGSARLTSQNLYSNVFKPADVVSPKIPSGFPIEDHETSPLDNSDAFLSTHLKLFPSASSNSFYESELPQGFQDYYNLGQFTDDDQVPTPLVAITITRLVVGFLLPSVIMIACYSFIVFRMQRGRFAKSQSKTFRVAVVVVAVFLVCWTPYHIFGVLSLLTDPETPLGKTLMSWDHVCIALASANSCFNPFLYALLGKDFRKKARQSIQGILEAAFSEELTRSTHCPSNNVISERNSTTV
Method in brief: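 IC50 values are geometric means, with −log IC50 computed per experiment and given as arithmetic mean ± SE. Cells were CD14+ monocytes from buffy-coat PBMC, differentiated to macrophages and used on day 7. Unbound label was removed by GF/B filtration with 3 cold washes in 50 mM Tris-HCl pH 7.4.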

C3aR [1] = biological target: T2, C3aR (Homo sapiens, UniProt Q16581); assay: Calcium mobilization assay in HMDM (agonist/antagonist activity); type: cell-based; conditions: Table 9, Ca^2+ mobilization, HMDM
T2 construct: peripheral blood mononuclear cells were isolated from buffy coat (obtained from Australian Red Cross Blood Service, Kelvin Grove); endogenous in cells; host or cells: primary human monocyte-derived macrophages (HMDM) differentiated from CD14+ monocytes of donor buffy coat
T2 sequence (Q16581 1-482): T1 sequence (Q16581 1-482)
Method in brief: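 Human monocyte-derived macrophages, 5×10^4 cells/well, loaded 1 h at 37 °C with 4 μM Fluo-3 in HBSS/HEPES/probenecid buffer, pH 7.4. Agonist mode: calcium release read 300 s; antagonist mode: 900 s compound preincubation then agonist, read 300 s (ex 485/em 520 nm); compared with hC3a.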

C3aR [2] = biological target: T2, C3aR; assay: Desensitization experiments (Ca^2+ efflux after hC3a desensitization); type: cell-based; conditions: hC3a 3 μM first; second addition of 1 μM compound; HMDM
Method: Desensitization experiments were used to measure the selectivity of various ligands for C3aR, since this can help to clarify whether the non-peptidic ligands bind selectively to C3aR over other GPCRs that signal through intracellular calcium release.
The hC3a (3 μM) was administered to human monocyte derived macrophage cells, which produces an efflux of intracellular Ca^2+ that dissipates after 4-5 mins (FIGS. 4A and 4B). A second addition of 3 μM hC3a after 5 mins has no effect, due to desensitization of the receptor through either receptor (C3a receptor) phosphorylation or receptor internalization from the cell surface.

pIC50 ± SEM (C3a receptor (C3aR)): 8.03 ± 0.05
IC50 (C3a receptor (C3aR); read-out: IC50 (converted)): 9 nM
pEC50 ± SEM (C3aR [1]): 8.15 ± 0.10
EC50 (C3aR [1]; read-out: EC50): 7.2 nM
Compound: CC(C)C[C@H](NC(=O)c1c[nH]c2ccccc12)c1nc(C(=O)N[C@@H](CCCNC(=N)N)C(=O)O)co1 [Compound 8, 3-Indole Carboxylic Acid-Leucine-Oxazole-Arginine-OH]
Ca^2+ efflux on addition after first desensitization with hC3a (selectivity for C3aR over other GPCRs) (C3aR [2]): caused a second efflux of intracellular Ca^2+
